Experimental data as given in patent US7790761B2, “Blockade of voltage dependent sodium channels” (University College London, priority 2000, dated 2010).
Read-outs that look alike come from different tables or passages of the source.

Key:
sodium channels = test: [14C]-labelled guanidine flux through sodium channels; type: biochemical, rat; conditions: inhibition of flux of [14C]-labelled guanidine through sodium channels
optic nerve axons [1] = test: Optic nerve pathology: axonal damage caused by oxygen- and glucose-deprivation (OGD); type: cell-based, rat; conditions: for Index of Axonopathy: mean ± S.E.M.; for Protection against axonal damage caused by OGD (in words): OGD-exposed rat optic nerve
Protocol: Optic nerves were excised from adult Wistar rats (weighing 240-280 g) after decapitation. They comprised lengths of nerve (each about 9 mm long) running from immediately behind the eyeball to just in front of the optic chiasm. The nerves were incubated in Erlenmeyer flasks (50 ml capacity) containing 20 ml of an artificial CSF (aCSF) solution composed of (mM): NaCl (120) KCl (2.0), CaCl2 (2.0), NaHCO3 (26), KH2PO4 (1.18), MgSO4 (1.19) and glucose (11), continuously gassed with 95% O2/5% CO2. The flasks were held in a shaking water bath at 37° C.
(§1) After 1-2 h preincubation in aCSF, test nerves received the NO donor, PAPA/NO (1 mM) for 2 h or OGD was imposed by transferring the nerves for 1 h into aCSF lacking glucose and gassed with 5% CO2 in N2. Afterwards, the nerves were allowed a 90 min recovery period in aCSF. Putative protectant drugs were present from 15 min before until 15 min after the NO exposure or OGD.
The nerves were then fixed for 2 h in a mixture of 4% paraformaldehyde and 2.5% glutaraldehyde in 0.1 M phosphate buffer (pH 7.4), and post-fixed with 1% osmium tetroxide for 1 h. After dehydration the tissues were embedded in Durcupan resin. Semithin (1 μm) sections were stained with either toluidine blue.
To quantify the extent of axonal pathology under the light microscope, the degree of distension of the axon profiles was measured using an image analysis system as described previously (Garthwaite et al., (1999), Neuroscience, 94, 1219-1230). The data are expressed as mean number of axons greater than 2.5 μm in diameter per […] (±S.E.M.) in fields from 5-39 nerves.

optic nerve axons [2] = test: Optic nerve pathology: axonal damage caused by the NO donor PAPA/NO; type: cell-based, rat
Protocol: Optic nerves were excised from adult Wistar rats (weighing 240-280 g) after decapitation. They comprised lengths of nerve (each about 9 mm long) running from immediately behind the eyeball to just in front of the optic chiasm. […] The flasks were held in a shaking water bath at 37° C.
as §1
After dehydration the tissues were embedded in Durcupan resin. Semithin (1 μm) sections were stained with either toluidine blue.
The data are expressed as mean number of axons greater than 2.5 μm in diameter per […] (±S.E.M.) in fields from 5-39 nerves.

[3] = PAPA/NO-exposed rat optic nerve

OCc1ccc(-c2nn(Cc3ccccc3)c3ccccc23)o1 [Example 4, 1-Benzyl-3-(5-hydroxymethyl-2-furyl)-1H-indazole]
IC50 (sodium channels): 17 µM
Index of Axonopathy (optic nerve axons [1]; OGD 1 h + drug, concentration not given): 72 ± 15 axons greater than 2.5 μm in diameter per 10^4 m^2
Protection against axonal damage caused by OGD (in words) (optic nerve axons [1]): able to protect to an equivalent degree
Index of Axonopathy (optic nerve axons [2]; PAPA/NO (1 mM) + drug at 30 μM, mean ± S.E.M.): 24 ± 4 axons greater than 2.5 μm in diameter per 10^4 m^2
Effect on axonal pathology caused by NO (in words) (optic nerve axons [2]; [3]): as effective as both these other agents

CN(C)Cc1noc(-c2nn(Cc3ccccc3)c3ccccc23)n1 [Example 52, 1-Benzyl-3-[3-(N,N-dimethylaminomethyl)-1,2,4oxadiazol-5-yl]indazole]
melting point: 93 to 95 °C
IC50 (sodium channels): 33.9 µM

CN1CCN(c2ncc(-c3cc(Cl)cc(Cl)c3Cl)c(N)n2)CC1 [BW619C89, reference compound]
Index of Axonopathy (optic nerve axons [1]; OGD 1 h + drug at 100 μM): 53 ± 5 axons greater than 2.5 μm in diameter per 10^4 m^2
Protection against axonal damage caused by OGD (in words) (optic nerve axons [1]): able to protect to an equivalent degree
Index of Axonopathy (optic nerve axons [2]; PAPA/NO (1 mM) + drug at 100 μM, mean ± S.E.M.): 26 ± 3 axons greater than 2.5 μm in diameter per 10^4 m^2
Effect on axonal pathology caused by NO (in words) (optic nerve axons [2]; [3]): eliminated

NC1=N[C@H](O)[C@H]2[C@H]3O[C@]4(O)O[C@@H]([C@@H](O)[C@@]2(N1)[C@@H]4O)[C@]3(O)CO [Tetrodotoxin]
Effect on axonal pathology caused by NO (in words) (optic nerve axons [2]): eliminated
Index of Axonopathy (optic nerve axons [2]): 17 ± 4 axons greater than 2.5 μm in diameter per 10^4 m^2

COC(=O)c1nn(Cc2ccccc2)c2ccccc12
melting point: 72 to 73 °C

O=C(O)c1n[nH]c2ccccc12 [Example 48, Indazole-3-carboxylic acid]
melting point: 261 to 263 °C (dec.)

CCCN(CCCN)/[N+]([O-])=N/O [PAPA/NO]
Index of Axonopathy (optic nerve axons [2]; PAPA/NO (1 mM) for 2 h alone, no protectant, mean ± S.E.M.): 226 ± 22 axons greater than 2.5 μm in diameter per 10^4 m^2
